Results published in patent US20240425517A1, “NOVEL COMPOUND FOR DEGRADATION OF TARGET PROTEIN OR POLYPEPTIDE BY POLYUBIQUITINATION” (PRAZER THERAPEUTICS INC., priority 2021, published 2024).

Biological target: T1, BRD4 proteins (Homo sapiens, UniProt O60885)
T1 construct: endogenous in cells; host or cells: MM.1S
Experiment: Degradation of BRD4 protein in MM.1S cell lines (Western blot densitometry)
Assay type: cell-based
Conditions: MM.1S cells, 10 μM, 24 hours
Summary of the method: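 MM.1S cells in RPMI-1640 with 10% FBS were treated with each degrader at 10 μM for 24 h. RIPA lysates were analysed by SDS-PAGE/Western blot with β-actin as reference, and BRD4 band densitometry was scored as reduction <40% (+), 40-<70% (++) or ≥70% (+++).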

| Compound | BRD4 degrading capacity (%) |
| --- | --- |
| Cc1sc2c(c1C)C(c1ccc(Cl)cc1)=N[C@@H](CC(=O)NCCC#Cc1ccc(C#CCCN)o1)c1nnc(C)n1-2.Cl [4-147′, (S)—N-(4-(5-(4-aminobut-1-yn-1-yl)furan-2-yl)but-3-yn-1-yl)-2-(4-(4-chlorophenyl)-2,3,9-trimethyl-6H-thieno[3,2-f][1,2,4]triazolo[4,3-a][1,4]diazepin-6-yl)acetamide hydrochloride] | ++ (the degrading capacity was reduced by 40% to 70% (exclusive of 70)) |
| Cc1sc2c(c1C)C(c1ccc(Cl)cc1)=N[C@@H](CC(=O)NCC#Cc1cccc(C#CCN)c1)c1nnc(C)n1-2.Cl [4-129′, (S)—N-(3-(3-(3-aminoprop-1-yn-1-yl)phenyl)prop-2-yn-1-yl)-2-(4-(4-chlorophenyl)-2,3,9-trimethyl-6H-thieno[3,2-f][1,2,4]triazolo[4,3-a][1,4]diazepin-6-yl)acetamide hydrochloride] | +++ (the degrading capacity was reduced by 70% or more) |
| Cc1sc2c(c1C)C(c1ccc(Cl)cc1)=N[C@@H](CC(=O)Nc1ccc(C#CCN)cc1)c1nnc(C)n1-2.Cl [1-1′, (S)—N-(4-(3-aminoprop-1-yn-1-yl)phenyl)-2-(4-(4-chlorophenyl)-2,3,9-trimethyl-6H-thieno[3,2-f][1,2,4]triazolo[4,3-a][1,4]diazepin-6-yl)acetamide hydrochloride] | ++ (the degrading capacity was reduced by 40% to 70% (exclusive of 70)) |
| COC(=O)c1ccc(N2CCN(C(=O)CCNC(=O)C[C@@H]3N=C(c4ccc(Cl)cc4)c4c(sc(C)c4C)-n4c(C)nnc43)CC2)cc1C#CCN.Cl [5-32′, methyl (S)-2-(3-aminoprop-1-yn-1-yl)-4-(4-(3-(2-(4-(4-chlorophenyl)-2,3,9-trimethyl-6H-thieno[3,2-f][1,2,4]triazolo[4,3-a][1,4]diazepin-6-yl)acetamido)propanoyl)piperazin-1-yl)benzoate hydrochloride] | +++ (the degrading capacity was reduced by 70% or more) |
| Cc1sc2c(c1C)C(c1ccc(Cl)cc1)=N[C@@H](CC(=O)NCCCCCC(=O)Nc1ccc(C#CCN)cc1)c1nnc(C)n1-2.Cl [4-165′, (S)—N-(4-(3-aminoprop-1-yn-1-yl)phenyl)-6-(2-(4-(4-chlorophenyl)-2,3,9-trimethyl-6H-thieno[3,2-f][1,2,4]triazolo[4,3-a][1,4]diazepin-6-yl)acetamido)hexanamide hydrochloride] | +++ (the degrading capacity was reduced by 70% or more) |
| COC(=O)c1cc(NC(=O)CCNC(=O)C[C@@H]2N=C(c3ccc(Cl)cc3)c3c(sc(C)c3C)-n3c(C)nnc32)ccc1C#CCN.Cl [4-126′, methyl (S)-2-(3-aminoprop-1-yn-1-yl)-5-(3-(2-(4-(4-chlorophenyl)-2,3,9-trimethyl-6H-thieno[3,2-f][1,2,4]triazolo[4,3-a][1,4]diazepin-6-yl)acetamido)propanamido)benzoate hydrochloride] | ++ (the degrading capacity was reduced by 40% to 70% (exclusive of 70)) |
| CCOC(=O)c1ccc(NC(=O)CCCNC(=O)C[C@@H]2N=C(c3ccc(Cl)cc3)c3c(sc(C)c3C)-n3c(C)nnc32)cc1C#CCN.Cl [5-1′, ethyl (S)-2-(3-aminoprop-1-yn-1-yl)-4-(4-(2-(4-(4-chlorophenyl)-2,3,9-trimethyl-6H-thieno[3,2-f][1,2,4]triazolo[4,3-a][1,4]diazepin-6-yl)acetamido)butanamido)benzoate hydrochloride] | +++ (the degrading capacity was reduced by 70% or more) |
| COC(=O)c1ccc(NC(=O)C2CCN(C(=O)C[C@@H]3N=C(c4ccc(Cl)cc4)c4c(sc(C)c4C)-n4c(C)nnc43)CC2)cc1C#CCNS(N)(=O)=O [5-154′, methyl (S)-4-(1-(2-(4-(4-chlorophenyl)-2,3,9-trimethyl-6H-thieno[3,2-f][1,2,4]triazolo[4,3-a][1,4]diazepin-6-yl)acetyl)piperidine-4-carboxamido)-2-(3-(sulfamoylamino)prop-1-yn-1-yl)benzoate trifluoroacetic acid] | +++ (the degrading capacity was reduced by 70% or more) |
| COC(=O)c1ccc(N2CCN(C(=O)C[C@@H]3N=C(c4ccc(Cl)cc4)c4c(sc(C)c4C)-n4c(C)nnc43)CC2)cc1C#CCN.Cl [5-7′, methyl (S)-2-(3-aminoprop-1-yn-1-yl)-4-(4-(2-(4-(4-chlorophenyl)-2,3,9-trimethyl-6H-thieno[3,2-f][1,2,4]triazolo[4,3-a][1,4]diazepin-6-yl)acetyl)piperazin-1-yl)benzoate hydrochloride] | + (the degrading capacity of each BRD4 degrader was reduced by less than 40%) |
| Cc1sc2c(c1C)C(c1ccc(Cl)cc1)=N[C@@H](CC(=O)NCCCCCCCCCCC(=O)Nc1cccc(C#CCN)c1)c1nnc(C)n1-2.Cl [5-108′, (S)—N-(3-(3-aminoprop-1-yn-1-yl)phenyl)-11-(2-(4-(4-chlorophenyl)-2,3,9-trimethyl-6H-thieno[3,2-f][1,2,4]triazolo[4,3-a][1,4]diazepin-6-yl)acetamido)undecanamide hydrochloride] | +++ (the degrading capacity was reduced by 70% or more) |
| COC(=O)c1ccc(NC(=O)CCNC(=O)C2CCN(C(=O)C[C@@H]3N=C(c4ccc(Cl)cc4)c4c(sc(C)c4C)-n4c(C)nnc43)CC2)cc1C#CCN.Cl [5-25′, methyl (S)-2-(3-aminoprop-1-yn-1-yl)-4-(3-(1-(2-(4-(4-chlorophenyl)-2,3,9-trimethyl-6H-thieno[3,2-f][1,2,4]triazolo[4,3-a][1,4]diazepin-6-yl)acetyl)piperidine-4-carboxamido)propanamido)benzoate hydrochloride] | +++ (the degrading capacity was reduced by 70% or more) |
| COC(=O)c1ccc(NC2CCN(C(=O)C[C@@H]3N=C(c4ccc(Cl)cc4)c4c(sc(C)c4C)-n4c(C)nnc43)CC2)cc1C#CCN [5-86′, methyl (S)-2-(3-aminoprop-1-yn-1-yl)-4-((1-(2-(4-(4-chlorophenyl)-2,3,9-trimethyl-6H-thieno[3,2-f][1,2,4]triazolo[4,3-a][1,4]diazepin-6-yl)acetyl)piperidin-4-yl)amino)benzoate] | +++ (the degrading capacity was reduced by 70% or more) |
| COC(=O)c1ccc(NC(=O)CCCNC(=O)C2CCN(C(=O)C[C@@H]3N=C(c4ccc(Cl)cc4)c4c(sc(C)c4C)-n4c(C)nnc43)CC2)cc1C#CCN.Cl [5-26′, methyl (S)-2-(3-aminoprop-1-yn-1-yl)-4-(4-(1-(2-(4-(4-chlorophenyl)-2,3,9-trimethyl-6H-thieno[3,2-f][1,2,4]triazolo[4,3-a][1,4]diazepin-6-yl)acetyl)piperidine-4-carboxamido)butanamido)benzoate hydrochloride] | ++ (the degrading capacity was reduced by 40% to 70% (exclusive of 70)) |
| Cc1sc2c(c1C)C(c1ccc(Cl)cc1)=N[C@@H](CC(=O)NCCC(=O)Nc1cccc(C#CCN)c1)c1nnc(C)n1-2.Cl [4-161′, (S)—N-(3-(3-aminoprop-1-yn-1-yl)phenyl)-3-(2-(4-(4-chlorophenyl)-2,3,9-trimethyl-6H-thieno[3,2-f][1,2,4]triazolo[4,3-a][1,4]diazepin-6-yl)acetamido)propanamide hydrochloride] | +++ (the degrading capacity was reduced by 70% or more) |
